Results as given in patent US7705047B2, “Amidoacetonitrile derivatives” (Novartis AG, priority 2003, dated 2010).

System: Trichostrongylus colubriformis and Haemonchus contortus
Test: In-vivo test on Trichostrongylus colubriformis and Haemonchus contortus on Mongolian gerbils using peroral application
Parameters: species or system Mongolian gerbils (Meriones unguiculatus)
Details: Mongolian gerbils infected with T. colubriformis and H. contortus, dose of 16 mg/kg, worm count 3 days after treatment
From the text: 1. In-vivo Test on Trichostrongylus colubriformis and Haemonchus contortus on Mongolian Gerbils (Meriones unguiculatus) using Peroral Application Six to eight week old Mongolian gerbils are infected through a stomach tube with ca. 2000 third instar larvae each of T. colubriformis and H. contortus. […] On day 9 (3 days after treatment), when most of the H. contortus that are still present are late 4th instar larvae and most of the T. colubriformis are immature adults, the gerbils are killed in order to count the worms. The efficacy is calculated as the % reduction of the number of worms in each gerbil, compared with the geometric average of number of worms from 6 infected and untreated gerbils.

CC(C#N)(COc1cc(C#N)ccc1Oc1ccc(Cl)cc1Cl)NC(=O)c1ccc(OC(F)(F)F)cc1 (stereo not shown) [Compound 1.47, N-[1-cyano-1-methyl-2-(5-cyano-2-{2,4-dichlorophenoxy}-phenoxy)-ethyl]-4-trifluoromethoxybenzamide]
elimination of the nematode infestation: complete elimination
